Assay results: article PMC9970282 (Nature chemical biology, 2022)

Columns and labels:
Assay in all cases: Competitive kinase engagement in mouse spleen with probe 3 as occupancy probe
Type in all cases: in vivo, mice
CDK2 = CDK2 (Mus musculus, UniProt P97377); conditions: 50 mg/kg oral
CDK17 = CDK17 (Mus musculus, UniProt Q8K0D0); conditions: 50 mg/kg oral, probe 3 10 mg/kg s.c., 1 h, p < 0.05
CDK5 = CDK5 (Mus musculus, UniProt P49615); conditions: 50 mg/kg oral, probe 3 10 mg/kg s.c., 1 h, p < 0.05
Sequence of CDK5 (P49615 whole entry): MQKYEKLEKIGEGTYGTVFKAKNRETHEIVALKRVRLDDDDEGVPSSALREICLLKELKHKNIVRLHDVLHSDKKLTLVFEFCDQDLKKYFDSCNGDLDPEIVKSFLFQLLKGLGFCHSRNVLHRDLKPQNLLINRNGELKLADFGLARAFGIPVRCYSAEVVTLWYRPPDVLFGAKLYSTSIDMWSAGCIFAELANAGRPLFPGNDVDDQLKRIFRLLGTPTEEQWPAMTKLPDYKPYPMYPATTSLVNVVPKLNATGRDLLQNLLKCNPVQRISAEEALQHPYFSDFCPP

Sequence of CDK17 (Q8K0D0 whole entry): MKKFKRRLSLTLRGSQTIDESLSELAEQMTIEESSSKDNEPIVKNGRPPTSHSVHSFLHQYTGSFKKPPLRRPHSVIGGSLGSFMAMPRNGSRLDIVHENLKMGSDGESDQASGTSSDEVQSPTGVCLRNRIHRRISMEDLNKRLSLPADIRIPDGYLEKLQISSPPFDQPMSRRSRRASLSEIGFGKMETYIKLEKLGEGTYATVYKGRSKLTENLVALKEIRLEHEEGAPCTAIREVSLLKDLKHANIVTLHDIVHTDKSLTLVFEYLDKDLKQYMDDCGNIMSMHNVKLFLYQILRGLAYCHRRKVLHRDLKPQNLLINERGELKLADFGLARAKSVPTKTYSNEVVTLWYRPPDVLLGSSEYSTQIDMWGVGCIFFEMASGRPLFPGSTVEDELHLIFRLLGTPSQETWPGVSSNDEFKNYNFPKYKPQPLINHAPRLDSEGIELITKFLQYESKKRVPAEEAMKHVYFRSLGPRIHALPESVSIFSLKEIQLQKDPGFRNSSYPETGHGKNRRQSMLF

With `C[C@@]1(O)CCC[C@H]1n1c(=O)c(C(F)F)cc2cnc(NC3CCN(S(C)(=O)=O)CC3)nc21` [PF-06873600] the “estimated occupancy of CDK2 in spleen tissue” value (CDK2; mice, based on competition with probe 3) was over 80%, the “log2 FC of enrichment by probe 3, PF-06873600 vs. vehicle” value (from here on “log2 FC … PF-06873600 vs. vehicle”) (CDK2; mouse spleen, probe 3 10 mg/kg s.c., 1 h, p < 0.05) was “< –2” and the “log2 FC … PF-06873600 vs. vehicle” value (CDK17) was “< –2”. The “log2 FC … PF-06873600 vs. vehicle” value (CDK5) was “~ –1”.
